In brackets after ≈: the same amount, converted by molar mass. Starred links: 1 amine or outer side, 2 acyl side, 3 side chain; linkers in the order of their positions; H or OH if unused. Positions of bridges follow the written chain, without caps; N, C: chain ends. Non-standard residues stand in square brackets, D forms with d. Residues, ends and D or L forms follow the SMILES beside them. X4 = CC(C)CCC=CCCC[C@H](CC(=O)[*:1])O[*:2]; X6 = CC(C)CCCCC=CC[C@H](CC(=O)[*:1])O[*:2]; X5 = CC(C)CCCCCCC[C@H](CC(=O)[*:1])O[*:2]; X3 = CC(C)CCCCC[C@H](CC(=O)[*:1])O[*:2]; X7 = CCCCCCC=CC[C@H](CC(=O)[*:1])O[*:2]; X2 = CCCCCCC[C@H](CC(=O)[*:1])O[*:2]; Val(3-OH) = CC(C)(O)[C@H](N)C(=O)O; X1 = C/C=C(/N[*:1])C(=O)[*:2]; Dab = NCC[C@H](N)C(=O)O; Dap = NC[C@H](N)C(=O)O
Key:
Assay in all cases: MIC, broth micro-dilution, primary panel
Type in all cases: cell-based
[1] = test system: A. baumannii LMG1041T; conditions: Acinetobacter baumannii, WT
Protocol: (§1) Isopedopeptin E (5): off-white solid; [α] D20 –36° (c 0.3 in methanol); UV (MeOH) λ max (log10 ε) 240 (3.8); 1H NMR (DMSO-d 6, 600 MHz), see Table S5; 13C NMR (DMSO-d 6, 150 MHz), see Table […]
(§2) Isopedopeptin F (6): off-white solid; [α] D20 –32° (c 0.05 in methanol); UV (MeOH) λ max (log10 ε) 240 (3.8); 1H NMR (DMSO-d 6, 600 MHz), see Table S6; 13C NMR (DMSO-d 6, 150 MHz), see Table […]
(§3) Isopedopeptin G (7): off-white solid; [α] D20 –49° (c 0.1 in methanol); UV (MeOH) λ max (log10 ε) 240 (4.0); 1H NMR (DMSO-d 6, 600 MHz), see Table S7; 13C NMR (DMSO-d 6, 150 MHz), see Table […]
(§4) Isopedopeptin H (8): off-white solid; [α] D20 –56° (c 0.2 in methanol); UV (MeOH) λ max (log10 ε) 240 (4.0); 1H NMR (DMSO-d 6, 600 MHz), see Table S8; 13C NMR (DMSO-d 6, 150 MHz), see Table […]
(§5) Minimal Inhibitory Concentration (MIC) against the primary panel of microorganisms.
(§6) The MIC for compounds 1–8 was measured by means of a broth micro-dilution method in 96-wells microtiter plates with the addition of E. coli LMG15862, LMG1041 T, E. cloacaeA. baumannii […]
(§7) H-29 and A. fumigatus J7, as test organisms. The test media were AM3 Broth (BD Difco Ltd) mixed with phosphate buffered saline (PBS, Amresco LLC, Solon, USA) in 1:4 ratio (E. coli, A. baumannii, E. cloacae, K. pneumoniae and P. aeruginosa), AM3 Broth mixed with PBS in 1:1 ratio (S. aureus), ME (A. fumigatus) and ISP2 (C. albicans). Prior to MIC determination, the cell concentration of tested bacterial/fungal pathogens was adjusted to ≅ 4 × 10^5 CFU/mL (acceptable range 2 – 6 × 10^5 CFU/mL). Cell concentration was confirmed by colony counting after diluting and plating the respective bacterial pathogen on VPA plates [VPA, 10 g Vegetable Peptone Broth (Oxoid Ltd., Basingstoke,UK), 15 g Bacto Agar (Difco Ltd, Tyrone) in 1 L deionised water] directly after each of MIC-tests. The cells of C. albicans were plated on ISP2 agar plates [ISP2, 15 g Bacto Agar (Difco Ltd) in 1 L deionised water] and respectively spores of A. fumigatus were plated on MEA plates.
(§8) Plates were, subsequently, incubated at 37 °C in the dark, and viable colonies counted after 16 to 24 h.
(§9) To estimate MIC values (concentration range between 0.05 and 50 µg/mL), solutions of the tested compounds (100, 10 and 1 and if needed 0.1 µg/mL in MeOH) were dispensed into wells of microtiter plate(s) and the solvent was evaporated in a fume-hood. Subsequently, suspensions of pathogen cells in the appropriate medium were dispensed to the wells of microtiter plates and the growth of pathogens were observed after 16 to 20 h of incubation at 37 °C in the dark. Positive controls were the respective pathogen cells suspended in untreated sterile media without addition of compounds(s) and negative controls were the media only. MIC values were defined as the lowest concentration of each compound with no visible growth of pathogen. All MIC tests were performed in triplicate and […]
(§10) MIC determination for compound 2 against an extended panel of bacterial strains.
(§11) Compound 2 was evaluated against a panel of Gram-negative bacteria (Hughes strain collection), including: A. baumannii ATCC 19606, wild-type; BM4454, multidrug-resistant clinical isolate; BM4652, efflux-defective derivative of BM4454; CH9622, colistin-resistant clinical isolate; E. coli ATCC 25922, wild-type; CH3130, efflux-defective ΔtolC mutant isogenic to ATCC 25922; D22, a drug-hypersensitive lpxC mutant of E. coli; CH3491, multidrug-resistant clinical isolate; CH9623 and CH9624, colistin-resistant clinical isolates carrying mcr-1; K. pneumoniae ATCC 13833, wild-type; […]
(§12) clinical isolate; CH9625 and CH9626, colistin-resistant clinical isolates; P. aeruginosa PAO1, wild-type; PAO750, efflux-defective mutant isogenic to PAO1. The in vitro antimicrobial activity of each compound was determined by measuring the MIC value using the broth micro-dilution technique in cation-adjusted Mueller-Hinton II broth (Becton-Dickinson, 212322) according to EUCAST and CLSI guidelines. Each compound prepared in MHII medium was dispensed into a 96-well round- […]

[2] = test system: B. cereus CCUG7414T; conditions: Bacillus cereus
Protocol: as §1, §2, §3, §4, §5, §6, §7, §8, §9, §10, §11, §12

[3] = test system: A. fumigatus J7; conditions: Aspergillus fumigatus
Protocol: as §1, §2, §3, §4, §5, §6, §7, §8, §9, §10, §11, §12

[4] = test system: E. cloacae LMG2783T; conditions: Enterobacter cloacae, WT
Protocol: as §1, §2, §3, §4, §5, §6, §7, §8, §9, §10, §11, §12

[5] = test system: E. coli LMG15862; conditions: Escherichia coli, β-lactam.
Protocol: as §1, §2, §3, §4, §5, §6, §7, §8, §9, §10, §11, §12

[6] = test system: C. albicans H-29; conditions: Candida albicans, H29; WT
Protocol: as §1, §2, §3, §4, §5, §6, §7, §8, §9, §10, §11, §12

[7] = test system: S. aureus LMG15975; conditions: Staphylococcus aureus, LMG15975 / MRSA
Protocol: as §1, §2, §3, §4, §5, §6, §7, §8, §9, §10, §11, §12

Row | Compound | MIC [1] | MIC [2] | MIC [3] | MIC [4] | MIC [5] | MIC [6] | MIC [7]
1 | C/C=C1/NC(=O)[C@H](CCN)NC(=O)[C@H](CC(C)C)NC(=O)[C@H](CN)NC(=O)C[C@@H](CCCCCC(C)C)OC(=O)[C@H](CC(=O)O)NC(=O)[C@H](C(C)C)NC(=O)[C@@H](Cc2ccccc2)NC(=O)[C@H](CN)NC(=O)[C@H]([C@@H](C)O)NC1=O [Compound 5, Isopedopeptin E] ([Dap]L[Dab][X1]T[Dap][dF]VD; linker N-C via X3) | 32 µg/mL (≈ 28.7 µM) | 16 µg/mL (≈ 14.3 µM) | > 32 µg/mL | > 32 µg/mL | > 32 µg/mL | > 32 µg/mL | > 32 µg/mL
2 | C/C=C1/NC(=O)[C@H](CCN)NC(=O)[C@H](CC(C)C)NC(=O)[C@H](CN)NC(=O)C[C@@H](CCCCCCC)OC(=O)[C@H](CC(=O)O)NC(=O)[C@H](C(C)C)NC(=O)[C@@H](Cc2ccccc2)NC(=O)[C@H](CN)NC(=O)[C@H]([C@@H](C)O)NC1=O [Compound 4, isopedopeptin D] ([Dap]L[Dab][X1]T[Dap][dF]VD; linker N-C via X2) | 16 µg/mL (≈ 14.5 µM) | 32 µg/mL (≈ 29.1 µM) | > 32 µg/mL | 32 µg/mL (≈ 29.1 µM) | 32 µg/mL (≈ 29.1 µM) | > 32 µg/mL | > 32 µg/mL
3 | C/C=C1/NC(=O)[C@H](CCN)NC(=O)[C@H](CC(C)C)NC(=O)[C@H](CN)NC(=O)C[C@@H](CC=CCCCCC(C)C)OC(=O)[C@H](CC(=O)O)NC(=O)[C@H](C(C)C)NC(=O)[C@@H](Cc2ccccc2)NC(=O)[C@H](CN)NC(=O)[C@H]([C@@H](C)O)NC1=O [Compound 8, Isopedopeptin H] ([Dap]L[Dab][X1]T[Dap][dF]VD; linker N-C via X6) | 16 µg/mL (≈ 14 µM) | 32 µg/mL (≈ 28 µM) | > 32 µg/mL | 16 µg/mL (≈ 14 µM) | 16 µg/mL (≈ 14 µM) | > 32 µg/mL | 16 µg/mL (≈ 14 µM)
4 | C/C=C1/NC(=O)[C@H](CCN)NC(=O)[C@H](CC(C)C)NC(=O)[C@H](CN)NC(=O)C[C@@H](CCCCCCC)OC(=O)[C@H](CC(=O)O)NC(=O)[C@H](C(C)(C)O)NC(=O)[C@@H](Cc2ccccc2)NC(=O)[C@H](CN)NC(=O)[C@H]([C@@H](C)O)NC1=O [Compound 2, isopedopeptin B] ([Dap]L[Dab][X1]T[Dap][dF][Val(3-OH)]D; linker N-C via X2) | 8 µg/mL (≈ 7.16 µM) | > 32 µg/mL | > 32 µg/mL | 32 µg/mL (≈ 28.6 µM) | 8 µg/mL (≈ 7.16 µM) | 32 µg/mL (≈ 28.6 µM) | 32 µg/mL (≈ 28.6 µM)
5 | C/C=C1/NC(=O)[C@H](CCN)NC(=O)[C@H](CC(C)C)NC(=O)[C@H](CN)NC(=O)C[C@@H](CC=CCCCCCC)OC(=O)[C@H](CC(=O)O)NC(=O)[C@H](C(C)(C)O)NC(=O)[C@@H](Cc2ccccc2)NC(=O)[C@H](CN)NC(=O)[C@H]([C@@H](C)O)NC1=O [Compound 3, isopedopeptin C] ([Dap]L[Dab][X1]T[Dap][dF][Val(3-OH)]D; linker N-C via X7) | 16 µg/mL (≈ 14 µM) | 32 µg/mL (≈ 28 µM) | > 32 µg/mL | 32 µg/mL (≈ 28 µM) | 16 µg/mL (≈ 14 µM) | 32 µg/mL (≈ 28 µM) | > 32 µg/mL
6 | C/C=C1/NC(=O)[C@H](CCN)NC(=O)[C@H](CC(C)C)NC(=O)[C@H](CN)NC(=O)C[C@@H](CCCC=CCCC(C)C)OC(=O)[C@H](CC(=O)O)NC(=O)[C@H](C(C)C)NC(=O)[C@@H](Cc2ccccc2)NC(=O)[C@H](CN)NC(=O)[C@H]([C@@H](C)O)NC1=O [Compound 7, Isopedopeptin G] ([Dap]L[Dab][X1]T[Dap][dF]VD; linker N-C via X4) | 8 µg/mL (≈ 7.01 µM) | 16 µg/mL (≈ 14 µM) | > 32 µg/mL | 16 µg/mL (≈ 14 µM) | 8 µg/mL (≈ 7.01 µM) | > 32 µg/mL | 16 µg/mL (≈ 14 µM)
7 | C/C=C1/NC(=O)[C@H](CCN)NC(=O)[C@H](CC(C)C)NC(=O)[C@H](CN)NC(=O)C[C@@H](CCCCCCCC(C)C)OC(=O)[C@H](CC(=O)O)NC(=O)[C@H](C(C)(C)O)NC(=O)[C@@H](Cc2ccccc2)NC(=O)[C@H](CN)NC(=O)[C@H]([C@@H](C)O)NC1=O [Compound 6, Isopedopeptin F] ([Dap]L[Dab][X1]T[Dap][dF][Val(3-OH)]D; linker N-C via X5) | 16 µg/mL (≈ 13.8 µM) | 32 µg/mL (≈ 27.6 µM) | > 32 µg/mL | 32 µg/mL (≈ 27.6 µM) | 16 µg/mL (≈ 13.8 µM) | > 32 µg/mL | 32 µg/mL (≈ 27.6 µM)
8 | C/C=C1/NC(=O)[C@H](CCN)NC(=O)[C@H](CC(C)C)NC(=O)[C@H](CN)NC(=O)C[C@@H](CCCCCC(C)C)OC(=O)[C@H](CC(=O)O)NC(=O)[C@H](C(C)(C)O)NC(=O)[C@@H](Cc2ccccc2)NC(=O)[C@H](CN)NC(=O)[C@H]([C@@H](C)O)NC1=O [Compound 1, cyclo(3-hydroxy-9-methyldecanoyl-DAPA1-Leu-DABA-ABA-Thr-DAPA2-Phe-OHVal-Asp)] ([Dap]L[Dab][X1]T[Dap][dF][Val(3-OH)]D; linker N-C via X3) | 4 µg/mL (≈ 3.54 µM) | > 32 µg/mL | > 32 µg/mL | 16 µg/mL (≈ 14.1 µM) | 4 µg/mL (≈ 3.54 µM) | 32 µg/mL (≈ 28.3 µM) | > 32 µg/mL
